From patent publication US4992570A, “UCN-1028A and UCN-1028C and process for the production thereof” (Kyowa Hakko Kogyo Co., Ltd., priority 1987, dated 1991) come the findings set out here.

Data set [1] has as its target Protein Kinase C. Kind of data set: Protein kinase C inhibitory activity (method of Kikkawa et al.). In kind it is biochemical, rat. The following applies: for IC50 Protein Kinase C: crude enzyme partially purified from rat brain, [γ-32P]ATP, Histone Type IIS, 30° C., 3 minutes; for selective inhibitory activity on protein kinase C, as compared with Phleichrome: statement on Table 1 (protein kinase C vs protein kinase A). On the procedure:
Protein kinase C inhibitory activity was measured by the method of Kikkawa, et al. [Journal of Biological Chemistry, 257, 13341 (1982)].
That is, 10 μl of a test solution containing UCN-1028A, UCN-1028C or Phleichrome was added to 250 μl of a solution containing 2.5 μmoles of magnesium acetate, 50 μg of Histone Type IIS (manufactured by Sigma Co., Ltd.), 20 μg of phosphatidyl serine, 0.8 μg of diolein, 25 nmoles of CaCl2, 5 μg of crude enzyme (partially purified from rat brain according to the method of Kikkawa, et al.) and 5 μmoles of Tris-hydrochloride buffer (H 7.5), followed by incubation at 30° C. for 3 minutes. Then, phosphorylation was initiated by addition of 1.25 nmoles of [γ-^32 P]ATP (5 to 10×10^3 cpm/nmole), followed by incubation at 30° C. for 3 minutes. The reaction was stopped by adding 25% trichloroacetic acid (TCA), and the reaction solution was filtered through a cellulose acetate membrane (pore size of 0.45 μm) (manufactured by Toyo Filter Paper Co., Ltd.). After the membrane was washed four times with 5% TCA, radioactivity remaining on the membrane was measured. As a control, the same procedure as above was repeated without addition of the test solution and radioactivity was likewise measured. A concentration of the test solution showing 50% inhibition as compared with the control was expressed as IC50.

Data set [2] has as its target T1, Protein Kinase A (Bos taurus, UniProt P00517).
T1 construct: partially purified from calf heart; from tissue; host or cells: calf heart (crude enzyme, partially purified by the method of Kuo et al.)
The data set can be described thus: Protein kinase A inhibitory activity (method of Kuo et al.). In kind it is biochemical, calf. On the procedure:
Protein kinase A inhibitory activity was measured according to the method of Kuo, et al. [Biochemistry, 64, […].
That is, 10 μl of a test solution was added to 250 μl of a solution containing 5 μmoles of Tris-hydrochloride buffer (pH 6.8), 2.5 μmoles of magnesium acetate, 100 μg of Histone Type IIS (manufactured by Sigma Co., Ltd.), 0.25 nmoles of C-AMP and 200 μg of crude enzyme (partially purified from calf heart according to the method of Kuo, et al.). Subsequent procedures were conducted in a manner similar to the case of measuring protein kinase C inhibitory activity described above to determine IC^50.

Data set [3] has as its system MCF 7 cells. Kind of data set: Anti-tumor activity: growth inhibition of MCF 7 cells (Neutral Red). The format is cell-based. Conditions: Homo sapiens. On the procedure:
(§1) MCF 7 cells (4.5×10^4 cells/ml) prepared in a medium comprising RPMI 1640 medium (manufactured by Gibco Co., Ltd.), 10% fetal calf serum, 10 μg/ml insulin and 10^-8 M estradiol (hereinafter referred to as medium A) were put into wells of a 96 well microtiter plate in the amount of 0.1 m(per each well. After culturing at 37° C for 20 hours in a carbon dioxide gas incubator, each test solution appropriately diluted with medium A (0.05 ml) was added thereto. Then, culturing was carried out at 37° C. for an hour in the carbon dioxide gas incubator, and the culture supernatant was removed. After the residue was washed once with […] (composition: 8 g/l NaCl, 0.2 g/l KCl, 1.5 g/l Na2 HPO4 and 0.2 g/l KH2 PO4), 0.1 ml of fresh medium A was added thereto, followed by culturing at 37° C. for 72 hours in the carbon dioxide gas incubator. Then, the culture supernatant was removed and 0.1 ml of a medium comprising medium A and 0.02% Neutral Red was added to the residue, followed by culturing at 37° C. for one hour in the carbon dioxide gas incubator, thereby staining the cells. After removal of the culture supernatant, the residue was washed once with physiological saline. Then, the pigment was extracted with 0.001 N hydrochloric acid/30% ethanol and absorbency at 550 nm was measured with a microplate reader. By comparing the absorbency of intact cells with that of the cells treated with a test solution having a known concentration, a concentration of the test solution which inhibited 50% of growth of the cells (IC50) was calculated.

The test system of data set [4] is HelaS3 cells. Kind of data set: Anti-tumor activity: growth inhibition of HelaS3 cells (Neutral Red). In kind it is cell-based. The following applies: Homo sapiens. On the procedure: as §1
HelaS3 cells (3×10^4 cells/ml) prepared in a medium comprising MEM medium (manufactured by Nissui Pharmaceutical Co., Ltd.) and 2 mM glutamine were put into wells of a 96 well microtiter plate in the amount of 0.1 ml per each well. In a manner similar to the case of MCF 7 cells described above, IC^50 was calculated.

Data set [5] is described as follows: Solubility.
The mark [6] stands for this setting: MCF7, 1 hour exposure, then 72 hours culture at 37° C., Neutral Red, 550 nm, read-out: IC50 MCF 7 cells.
The mark [7] stands for this setting: HeLa S3, similar to MCF 7 cells, MEM medium, 2 mM glutamine, read-out: IC50 HelaS3 cells.

In brackets after ≈: the same amount, converted by molar mass. Where two headings read alike, the source gives them in different places.

In general, IC50 refers to the midpoint of a concentration-inhibition curve. In the case of `COc1c(CC(C)O)c2c3c(CC(C)O)c(OC)c(=O)c4c(O)cc(OC)c(c5c(OC)cc(O)c(c1=O)c52)c43` (stereo not shown) [Phleichrome, reference compound], in data set [1], the “IC50 Protein Kinase C” value worked out at 5.5 µg/mL (≈ 9.99 µM). For the same compound, the concentration for half-maximal inhibition (IC50) in data set [2] was 59.9 µM; in data set [3] (setting [6]) it was 0.7 µg/mL (≈ 1.27 µM); in data set [4] (setting [7]) it was 0.61 µg/mL (≈ 1.11 µM).
In the case of `COc1c(CC(C)OC(=O)c2ccccc2)c2c3c(CC(C)OC(=O)c4ccccc4)c(OC)c(=O)c4c(O)cc(OC)c(c5c(OC)cc(O)c(c1=O)c52)c43` (stereo not shown) [UCN-1028A], in data set [1], the “IC50 Protein Kinase C” value amounted to 0.19 µg/mL (≈ 0.25 µM) and the “selective inhibitory activity on protein kinase C, as compared with Phleichrome” value is listed as “selective inhibitory activity on protein kinase C”. The compound also showed a half-inhibitory concentration (IC50) in data set [2] of more than 52.7 µM. Moreover, the IC50 in data set [3] (setting [6]) amounted to 0.21 µg/mL (≈ 0.277 µM). Besides, the IC50 in data set [4] (setting [7]) was 0.29 µg/mL (≈ 0.382 µM). Moreover, in data set [5], the Solubility in acetone result is “soluble”, the “Solubility in alkaline water” value is “soluble”, the Solubility in chloroform entry is “readily soluble” and the “Solubility in ethyl acetate” value was “readily soluble”. For the same compound, in data set [5], the Solubility in methanol result is given as “soluble” and the Solubility in water entry is “insoluble”. Moreover, the Solubility in n-hexane result in data set [5] (n-hexane) is recorded as “soluble”.
With `COc1c(CC(C)OC(=O)Oc2ccc(O)cc2)c2c3c(CC(C)OC(=O)c4ccccc4)c(OC)c(=O)c4c(O)cc(OC)c(c5c(OC)cc(O)c(c1=O)c52)c43` (stereo not shown) [UCN-1028C], in data set [1], the “IC50 Protein Kinase C” value was determined as 0.07 µg/mL (≈ 0.0885 µM) and the “selective inhibitory activity on protein kinase C, as compared with Phleichrome” value is “selective inhibitory activity on protein kinase C”. Further, the concentration for half-maximal inhibition (IC50) in data set [2] (crude enzyme partially purified from calf heart, Histone Type IIS, C-AMP, pH 6.8, read-out: IC50 Protein Kinase A) was more than 50.6 µM. The IC50 in data set [3] (MCF7, read-out: IC50 MCF 7 cells) came out at 0.18 µg/mL (≈ 0.228 µM). Further, in data set [4] (HeLa S3, read-out: IC50 HelaS3 cells), the IC50 came to 0.19 µg/mL (≈ 0.24 µM). Also, in data set [5] (DMSO), the “Solubility in DMSO” value was “readily soluble”. Moreover, in data set [5], the Solubility in acetone result is on record as “soluble”, the “Solubility in alkaline water” value is “soluble”, the Solubility in chloroform result was “soluble” and the “Solubility in ethyl acetate” value is listed as “soluble”. In addition, in data set [5], the Solubility in methanol entry is “readily soluble” and the Solubility in water result is given as “insoluble”.
